Reference: US20080287430A1, “Furan Compounds Useful As Ep1 Receptor Antagonists” (priority 2005, published 2008)
Structures can show the parent of a compound that is named as a salt.

Tests used:
[1] = system: gastric lesions in rats; conditions: lesions induced by taurocholate acid, aspirin or indomethacin, J Pharmacol Exp Ther 1992, 263(1), 374-380; cited from earlier work
[2] = system: rodent model of post-operative pain; conditions: Anesthesia and Analgesia 2001, 92, 233-238; cited from earlier work
[3] = system: rat model of chronic constriction injury; conditions: Anesthesia and Analgesia 2001, 93, 1012-7; cited from earlier work
[4] = biological target: T1, human EP1 receptor (Homo sapiens, UniProt P34995); experiment: Binding assay for the human prostanoid EP1 receptor (competition with [3H]-PGE2); conditions: binding to human EP1 receptor, [3H]-PGE2 competition, CHO-K1 cell membranes; averages of a number of experiments; read-out: pIC50 value (converted)
T1 construct: expressed in transfected cells; host or cells: CHO-K1
T1 sequence (P34995 1-402): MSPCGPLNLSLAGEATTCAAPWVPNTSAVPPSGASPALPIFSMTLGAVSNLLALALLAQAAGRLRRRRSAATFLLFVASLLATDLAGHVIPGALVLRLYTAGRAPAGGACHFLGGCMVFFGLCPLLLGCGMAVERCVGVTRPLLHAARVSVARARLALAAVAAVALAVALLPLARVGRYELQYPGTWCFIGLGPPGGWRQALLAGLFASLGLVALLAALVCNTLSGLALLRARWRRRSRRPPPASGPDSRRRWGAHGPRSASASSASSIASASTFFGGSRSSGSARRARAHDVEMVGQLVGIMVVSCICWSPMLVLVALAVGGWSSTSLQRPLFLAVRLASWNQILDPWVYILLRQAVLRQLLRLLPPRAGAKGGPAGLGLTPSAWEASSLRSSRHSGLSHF
Procedure: Competition assay using [^3H]-PGE2.
Compound potencies are determined using a radioligand binding assay. In this assay compound potencies are determined from their ability to compete with tritiated prostaglandin E2 ([^3H]-PGE2) for binding to the human EP1 receptor.
This assay utilises Chinese hamster ovary-K1 (CHO-K1) cells into which a stable vector containing the EP1 cDNA has previously been transfected. Cells are cultured in suitable flasks containing culture medium such as DMEM:F-12 supplemented with 10% v/v foetal calf serum, 2 mM L-glutamine, 0.25 mg/ml geneticin, 10 μg/ml puromycin and 10 μM indomethacin.
Cells are detached from the culture flasks by incubation in calcium and magnesium free phosphate buffered saline containing 1 mM disodium ethylenediaminetetraacetic acid (Na2EDTA) and 10 μM indomethacin for 5 min. The cells are isolated by centrifugation at 250×g for 5 mins and suspended in an ice cold buffer such as 50 mM Tris, 1 mM Na2EDTA, 140 mM NaCl, 10 μM indomethacin (pH 7.4). The cells are homogenised using a Polytron tissue disrupter (2×10 s burst at full setting), centrifuged at 48,000×g for 20 mins and the pellet containing the membrane fraction is washed (optional) three times by suspension and centrifugation at 48,000×g for 20 mins. The final membrane pellet is suspended in an assay buffer such as 10 mM 2-[N-morpholino]ethanesulphonic acid, 1 mM Na2EDTA, 10 mM MgCl2 (pH 6). Aliquots are frozen at −80° C. until required.
For the binding assay the cell membranes, competing compounds and [^3H]-PGE2 (3 nM final assay concentration) are incubated in a final volume of 100 μl for 30 min at 30° C. All reagents are prepared in assay buffer. Reactions are terminated by rapid vacuum filtration over GF/B filters using a Brandell cell harvester. The filters are washed with ice cold assay buffer, dried and the radioactivity retained on the filters is measured by liquid scintillation counting in Packard TopCount scintillation counter.
The data are analysed using non linear curve fitting techniques to determine the concentration of compound producing 50% inhibition of specific binding (IC50).

[5] = biological target: T1, human EP1 receptor; experiment: human EP1 calcium mobilisation assay; assay type: cell-based; conditions: human EP1, PGE2-induced calcium mobilisation in CHO-K1 cells; free bases or sodium salts; averages of a number of experiments; read-out: functional pKi value (converted)
How it was run: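 CHO-K1 cells stably expressing human EP1, loaded with Fluo-4 after 24 h at 37° C; compounds added before PGE2 challenge. Inhibition of PGE2-induced [Ca2+]i rise read by FLIPR fluorescence; pIC50 from curve fitting of half-maximal inhibition.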

Structure (SMILES) | IC50 [4] [nM] | Ki [5] [nM] | gastric lesions [1] | mechanical hyperalgesia [2] | hyperalgesia and allodynia [3]
O=C(O)Cc1ccc(CCNS(=O)(=O)c2ccc(Cl)cc2)cc1 [BM 13505] |  |  | inhibit gastric lesions |  | 
Cc1cc(Cl)ccc1S(=O)(=O)NC[C@H]1C2CCC(CC2)[C@@H]1/C=C\CCCC(=O)O [ONO-8711] |  |  |  | inhibits mechanical hyperalgesia | reduces hyperalgesia and allodynia
COc1nccc2[nH]c(-c3ccc(Cc4cc(Cl)ccc4OCC(C)C)o3)nc12 [Example 104, 2-[5-({5-Chloro-2-[(2-methylpropyl)oxy]-phenyl}methyl)-2-furanyl]-4-(methyloxy)-1H-imidazo[4,5-c]pyridine] | ≤ 10 | ≤ 10 |  |  | 
O=C(O)c1ccc(Cc2cc(Cl)ccc2OCC2CC2)o1 [Example 3, Sodium 5-({5-chloro-2-[(cyclopropylmethyl)oxy]phenyl}methyl)-2-furancarboxylate] | ≤ 10 | < 1000 |  |  | 

Further lines, with some results ahead:

IC50 [4] [nM] | Ki [5] [nM] | Structure (SMILES) | gastric lesions [1] | mechanical hyperalgesia [2] | hyperalgesia and allodynia [3]
≤ 10 | ≤ 10 | O=C(O)c1ccc(Cc2cc(Cl)ccc2OCc2ccc(F)cc2Cl)o1 [Example 22, Sodium 5-[(5-chloro-2-{[(2-chloro-4-fluorophenyl)methyl]oxy}phenyl)methyl]-2-furancarboxylate] |  |  | 
≤ 10 | < 1000 | CC(C)COc1ccc(Cl)cc1Cc1ccc(-c2nc3c(F)cccc3[nH]2)o1 [Example 108, 2-[5-({5-Chloro-2-[(2-methylpropyl)oxy]-phenyl}methyl)-2-furanyl]-4-fluoro-1H-benzimidazole] |  |  | 
≤ 10 | < 1000 | CC(C)COc1ccc(Cl)cc1Cc1ccc(-c2nc3ccc(CN4CCN(C)CC4)cc3[nH]2)o1 [Example 145, 2-[5-({5-Chloro-2-[(2-methylpropyl)oxy]-phenyl}methyl)-2-furanyl]-5-[(4-methyl-1-piperazinyl)methyl]-1H-benzimidazoletrihydrochloride] |  |  | 
≤ 10 | ≤ 10 | CC(C)COc1ccc(Cl)cc1Cc1ccc(-c2nc3ccccc3[nH]2)o1 [Example 98, 2-[5-({5-Chloro-2-[(2-methylpropyl)oxy]phenyl}methyl)-2-furanyl]-1H-benzimidazole] |  |  | 
≤ 10 | < 1000 | O=C(Nc1c(F)cccc1F)c1ccc(Cc2cc(Cl)ccc2OCc2ccc(Cl)cc2F)o1 [Example 84, 5-[(5-Chloro-2-{[(4-chloro-2-fluorophenyl)methyl]oxy}-phenyl)methyl]-N-(2,6-difluorophenyl)-2-furancarboxamide] |  |  | 
